Test results taken from US4882349A, “Pyrrolacetic amides having antiinflammatory activity” (priority 1982, dated 1989).
Like-named read-outs stand apart in the source and are kept apart here.

Legend:
[1] = system: phenyl-p-quinone-induced writhing (abdominal contractions); test: phenylquinone-induced writhing test, oral administration 1-24 h before phenyl-quinone (duration of analgesia); format: in vivo, male Wistar rats
Procedure: Male Wistar rats weighing 110±5 g were caged for 10 days at 22±1° C. and given a balanced diet with free access to water. Twenty-four hours before the experiment the animals were randomized into groups of 10 and fasted for 14 hours but with free access to water. Each dose was tested in 3 groups of rats. […] alone (0.5% carboxymethyl-cellulose in physiological saline) in the control animals, each rat was given 2 ml of a 5% absolute ethanol aqueous solution containing 0.36% of phenyl-p-quinone (Sigma Chemical Company) in order to provoke writhings. Fifteen minutes after administration of phenyl-p-quinone the number of contractions were counted for 20 minutes. The inhibiting effect of the compounds under examination on the abdominal contractions induced by phenyl-p-quinone was calculated by the following formula: % protection= [formula]

[2] = system: brewers' yeast-induced hyperthermia; test: antipyretic activity, brewers' yeast-induced hyperthermia; format: in vivo, albino male Wistar rats
Procedure: The animals were caged under the same conditions as those described in the preceding tests. Five hours following […], determined by a rectal probe connected to a YSI thermometer (73 ATP model, Yellow Springs Instrument Company) were selected for the experiment. The animals were then randomized into groups of 10 and the compounds under examination and the vehicle were administered via the oral and parenteral routes testing each dose in two groups. Body temperature was determined at one, two and three hours after administration of the substances. […]

gastric lesions = format: in vivo, male Wistar rats; settings: 4 consecutive days; for gastric damage index: I=mean no. of lesions+mean of severity+% incidence/10; for mean severity: scale 0 (no lesion) to 5 (perforations)
Procedure: Male Wistar rats weighing 180 g were randomized into groups of 10. Three doses of each compound were administered. One group received the vehicle alone (10 ml/kg b.w.). Each dose was given orally for four days consecutively and the rats were sacrificed on the fifth day for necropsy. The ulcerogenic effect was evaluated by the following scale:
(1) each haemorrhagic point at least 1 mm in diameter was scored as 1 lesion,
(2) haemorrhagic points less than 1 mm in diameter were scored in the following manner:
(c) 20 to 29=three lesions
By means of this scale it was possible to obtain the gastric damage index:
I=mean no. of lesions+mean of severity+% incidence/10

solubility = format: physicochemical
in vivo = settings: mouse

Question: Which “% Protection” value ([1]; 10 mg/Kg oral, 1 h before phenyl-quinone) does the source give for `COc1ccccc1OC(=O)CNC(=O)Cc1ccc(C(=O)c2ccc(C)cc2)n1C` [Compound 1-d, 1-methyl-5-p-toluoylpyrrole-2-acetamidoacetic acid guaiacyl ester] here?
Answer: 55.7%

Question: And the “% Protection” value ([1]; 10 mg/Kg oral, 2 h before phenyl-quinone)?
Answer: 43.3%

Question: And the “% Protection” value ([1]; 10 mg/Kg oral, 4 h before phenyl-quinone)?
Answer: 40.1%

Question: And the “% Protection” value ([1]; 10 mg/Kg oral, 6 h before phenyl-quinone)?
Answer: 44.0%

Question: What about the “% Protection” value ([1]; 10 mg/Kg oral, 8 h before phenyl-quinone) of the same compound?
Answer: 32.0%

Question: What about the “% Protection” value ([1]; 10 mg/Kg oral, 16 h before phenyl-quinone) of the same compound?
Answer: 12.1%

Question: What about the “% Protection” value ([1]; 10 mg/Kg oral, 24 h before phenyl-quinone) of the same compound?
Answer: 10.0%

Question: What about the “% Protection” value ([1]; 20 mg/Kg oral, 1 h before phenyl-quinone) of the same compound?
Answer: 78.1%

Question: What about the “% Protection” value ([1]; 20 mg/Kg oral, 2 h before phenyl-quinone) of the same compound?
Answer: 80.6%

Question: What about the “% Protection” value ([1]; 20 mg/Kg oral, 4 h before phenyl-quinone) of the same compound?
Answer: 70.5%

Question: What about the “% Protection” value ([1]; 20 mg/Kg oral, 6 h before phenyl-quinone) of the same compound?
Answer: 66.3%

Question: And the “% Protection” value ([1]; 20 mg/Kg oral, 8 h before phenyl-quinone)?
Answer: 71.0%

Question: What about the “% Protection” value ([1]; 20 mg/Kg oral, 16 h before phenyl-quinone) of the same compound?
Answer: 23.6%

Question: What about the “% Protection” value ([1]; 20 mg/Kg oral, 24 h before phenyl-quinone) of the same compound?
Answer: 25.0%

Question: What about the “% Protection” value ([1]; 50 mg/Kg oral, 1 h before phenyl-quinone) of the same compound?
Answer: 86.4%

Question: What about the “% Protection” value ([1]; 50 mg/Kg oral, 2 h before phenyl-quinone) of the same compound?
Answer: 87.0%

Question: And the “% Protection” value ([1]; 50 mg/Kg oral, 4 h before phenyl-quinone)?
Answer: 81.5%

Question: What about the “% Protection” value ([1]; 50 mg/Kg oral, 6 h before phenyl-quinone) of the same compound?
Answer: 76.8%

Question: And the “% Protection” value ([1]; 50 mg/Kg oral, 8 h before phenyl-quinone)?
Answer: 75.0%

Question: What about the “% Protection” value ([1]; 50 mg/Kg oral, 16 h before phenyl-quinone) of the same compound?
Answer: 60.7%

Question: What about the “% Protection” value ([1]; 50 mg/Kg oral, 24 h before phenyl-quinone) of the same compound?
Answer: 64.0%

Question: And the “% Temperature decrease” value ([2]; 50 mg/Kg i.p., 1 h)?
Answer: 16.0%

Question: And the “% Temperature decrease” value ([2]; 50 mg/Kg i.p., 2 h)?
Answer: 23.0%

Question: And the “% Temperature decrease” value ([2]; 50 mg/Kg i.p., 3 h)?
Answer: 37.5%

Question: What about the “% Temperature decrease” value ([2]; 50 mg/Kg per os, 1 h) of the same compound?
Answer: 14.0%

Question: And the “% Temperature decrease” value ([2]; 50 mg/Kg per os, 2 h)?
Answer: 22.0%

Question: And the “% Temperature decrease” value ([2]; 50 mg/Kg per os, 3 h)?
Answer: 31.6%

Question: And the “% Temperature decrease” value ([2]; 75 mg/Kg i.p., 1 h)?
Answer: 22.1%

Question: What about the “% Temperature decrease” value ([2]; 75 mg/Kg i.p., 2 h) of the same compound?
Answer: 33.4%

Question: What about the “% Temperature decrease” value ([2]; 75 mg/Kg i.p., 3 h) of the same compound?
Answer: 39.8%

Question: And the “% Temperature decrease” value ([2]; 75 mg/Kg per os, 1 h)?
Answer: 18.5%

Question: And the “% Temperature decrease” value ([2]; 75 mg/Kg per os, 2 h)?
Answer: 23.4%

Question: What about the “% Temperature decrease” value ([2]; 75 mg/Kg per os, 3 h) of the same compound?
Answer: 29.1%

Question: What about the “% Temperature decrease” value ([2]; 100 mg/Kg i.p., 1 h) of the same compound?
Answer: 28.1%

Question: And the “% Temperature decrease” value ([2]; 100 mg/Kg i.p., 2 h)?
Answer: 37.2%

Question: What about the “% Temperature decrease” value ([2]; 100 mg/Kg i.p., 3 h) of the same compound?
Answer: 60.4%

Question: And the “% Temperature decrease” value ([2]; 100 mg/Kg per os, 1 h)?
Answer: 22.0%

Question: What about the “% Temperature decrease” value ([2]; 100 mg/Kg per os, 2 h) of the same compound?
Answer: 42.5%

Question: What about the “% Temperature decrease” value ([2]; 100 mg/Kg per os, 3 h) of the same compound?
Answer: 59.0%

Question: And the “% incidence/10 (head is drawing 38)” value (gastric lesions; 50 mg/Kg orally)?
Answer: 6

Question: And the “mean no. of lesions” value (gastric lesions; 50 mg/Kg orally)?
Answer: 1.5

Question: And the gastric damage index (gastric lesions; 50 mg/Kg orally)?
Answer: 8.5

Question: What about the mean severity (gastric lesions; 50 mg/Kg orally) of the same compound?
Answer: 1

Question: And the “% incidence/10 (head is drawing 38)” value (gastric lesions; 100 mg/Kg orally)?
Answer: 9

Question: What about the “mean no. of lesions” value (gastric lesions; 100 mg/Kg orally) of the same compound?
Answer: 2

Question: And the gastric damage index (gastric lesions; 100 mg/Kg orally)?
Answer: 12.5

Question: And the mean severity (gastric lesions; 100 mg/Kg orally)?
Answer: 1.5

Question: And the “% incidence/10 (head is drawing 38)” value (gastric lesions; 200 mg/Kg orally)?
Answer: 9

Question: And the “mean no. of lesions” value (gastric lesions; 200 mg/Kg orally)?
Answer: 2

Question: And the gastric damage index (gastric lesions; 200 mg/Kg orally)?
Answer: 13

Question: What about the mean severity (gastric lesions; 200 mg/Kg orally) of the same compound?
Answer: 2

Question: And the Solubility (solubility)?
Answer: soluble in the common organic solvents

Question: And the LD50 (in vivo; ip)?
Answer: 1370 mg/kg

Question: And the LD50 (in vivo; po)?
Answer: > 1500 mg/kg
